ChEMBL document CHEMBL1140460, “Design, synthesis, and biological evaluation of triazolopiperazine-based beta-amino amides as potent, orally active dipeptidyl peptidase IV (DPP-4) inhibitors” (Bioorg Med Chem Lett, 2007)

Tests used:
Dipeptidyl peptidase 9 = Dipeptidyl peptidase 9 (Homo sapiens, UniProt Q86TI2); experiment: Inhibition of DPP9
[1] = Plasma clearance in rat; type: ADME, organism-based
[2] = (§1) Half life in rat; type: ADME, organism-based; details: in vivo
[3] = Oral bioavailability in rat; type: ADME, organism-based; details: in vivo
Dipeptidyl peptidase 2 = Dipeptidyl peptidase 2 (Homo sapiens, UniProt Q9UHL4); experiment: Inhibition of QPP
Dipeptidyl peptidase 8 = Dipeptidyl peptidase 8 (Homo sapiens, UniProt Q6V1X1); experiment: Inhibition of DPP8
Chain of Dipeptidyl peptidase 8 (Q6V1X1 whole entry): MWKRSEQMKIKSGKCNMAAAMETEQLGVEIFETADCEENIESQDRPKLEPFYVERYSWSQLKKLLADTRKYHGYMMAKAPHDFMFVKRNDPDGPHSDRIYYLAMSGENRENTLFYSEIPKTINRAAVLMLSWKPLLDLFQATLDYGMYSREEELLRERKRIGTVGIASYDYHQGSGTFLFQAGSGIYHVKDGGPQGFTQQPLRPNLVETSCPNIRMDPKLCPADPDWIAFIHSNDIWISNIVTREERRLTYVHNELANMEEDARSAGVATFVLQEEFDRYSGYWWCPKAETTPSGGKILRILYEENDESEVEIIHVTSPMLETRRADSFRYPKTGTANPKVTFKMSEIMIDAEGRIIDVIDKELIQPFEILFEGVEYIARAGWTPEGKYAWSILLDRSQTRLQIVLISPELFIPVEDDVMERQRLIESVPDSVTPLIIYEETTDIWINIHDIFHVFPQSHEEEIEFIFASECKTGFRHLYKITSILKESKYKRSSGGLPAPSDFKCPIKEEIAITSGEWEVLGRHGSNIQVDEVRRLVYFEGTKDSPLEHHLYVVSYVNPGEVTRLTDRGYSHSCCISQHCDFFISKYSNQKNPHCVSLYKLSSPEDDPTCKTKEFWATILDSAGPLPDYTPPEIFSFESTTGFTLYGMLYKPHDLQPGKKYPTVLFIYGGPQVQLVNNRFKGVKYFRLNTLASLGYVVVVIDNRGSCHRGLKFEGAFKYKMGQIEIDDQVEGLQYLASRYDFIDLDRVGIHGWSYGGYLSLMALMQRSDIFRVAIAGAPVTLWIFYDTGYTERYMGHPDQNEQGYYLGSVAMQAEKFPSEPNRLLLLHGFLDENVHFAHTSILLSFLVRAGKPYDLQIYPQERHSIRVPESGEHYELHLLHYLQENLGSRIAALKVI

Dipeptidyl peptidase 4 = Dipeptidyl peptidase 4 (Homo sapiens, UniProt P27487)
Chain of Dipeptidyl peptidase 4 (P27487 whole entry): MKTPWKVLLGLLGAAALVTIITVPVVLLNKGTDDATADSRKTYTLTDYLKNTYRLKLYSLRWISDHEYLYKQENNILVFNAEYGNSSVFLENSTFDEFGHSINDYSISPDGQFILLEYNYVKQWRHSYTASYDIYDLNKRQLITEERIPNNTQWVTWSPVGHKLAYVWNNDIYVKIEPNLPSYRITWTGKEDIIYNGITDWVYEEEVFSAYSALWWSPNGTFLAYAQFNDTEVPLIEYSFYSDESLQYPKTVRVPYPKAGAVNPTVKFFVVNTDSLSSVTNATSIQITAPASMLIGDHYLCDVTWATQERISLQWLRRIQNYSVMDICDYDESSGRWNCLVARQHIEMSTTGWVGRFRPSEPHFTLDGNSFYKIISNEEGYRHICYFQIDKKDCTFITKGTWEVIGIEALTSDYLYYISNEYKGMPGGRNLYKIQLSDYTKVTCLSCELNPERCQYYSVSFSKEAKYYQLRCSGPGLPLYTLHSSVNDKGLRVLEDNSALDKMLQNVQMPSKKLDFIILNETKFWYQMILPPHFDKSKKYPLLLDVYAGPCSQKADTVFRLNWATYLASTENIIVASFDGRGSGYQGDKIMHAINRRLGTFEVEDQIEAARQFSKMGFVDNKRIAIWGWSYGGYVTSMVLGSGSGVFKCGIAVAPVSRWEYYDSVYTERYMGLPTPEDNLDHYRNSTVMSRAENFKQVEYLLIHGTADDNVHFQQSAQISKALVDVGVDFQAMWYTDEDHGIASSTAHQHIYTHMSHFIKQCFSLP

[4] = Plasma clearance in dog; type: ADME, organism-based, Canis lupus familiaris
[5] = Plasma clearance in rhesus monkey; type: ADME, organism-based, Macaca mulatta
Rattus norvegicus = organism: Rattus norvegicus; experiment: as §1; type: ADME, organism-based; details: in vivo
[6] = Half life in dog; type: ADME, organism-based, Canis lupus familiaris; details: in vivo
[7] = Half life in rhesus monkey; type: ADME, organism-based, Macaca mulatta; details: in vivo
[8] = Oral bioavailability in dog; type: ADME, organism-based, Canis lupus familiaris; details: in vivo
[9] = Oral bioavailability in rhesus monkey; type: ADME, organism-based, Macaca mulatta; details: in vivo
Mus musculus [10] = experiment: Reduction of blood glucose excursion in lean mouse at 0.1 mg/kg by oral glucose tolerance test; type: functional; set-up: scale not given: the % may be the effect or the level left
Mus musculus [11] = experiment: Reduction of blood glucose excursion in lean mouse at 3.0 mg/kg by oral glucose tolerance test; type: functional; set-up: scale not given: the % may be the effect or the level left
Mus musculus [12] = experiment: Reduction of blood glucose excursion in lean mouse at 1.0 mg/kg by oral glucose tolerance test; type: functional; set-up: scale not given: the % may be the effect or the level left

Chain of Dipeptidyl peptidase 9 (Q86TI2 whole entry): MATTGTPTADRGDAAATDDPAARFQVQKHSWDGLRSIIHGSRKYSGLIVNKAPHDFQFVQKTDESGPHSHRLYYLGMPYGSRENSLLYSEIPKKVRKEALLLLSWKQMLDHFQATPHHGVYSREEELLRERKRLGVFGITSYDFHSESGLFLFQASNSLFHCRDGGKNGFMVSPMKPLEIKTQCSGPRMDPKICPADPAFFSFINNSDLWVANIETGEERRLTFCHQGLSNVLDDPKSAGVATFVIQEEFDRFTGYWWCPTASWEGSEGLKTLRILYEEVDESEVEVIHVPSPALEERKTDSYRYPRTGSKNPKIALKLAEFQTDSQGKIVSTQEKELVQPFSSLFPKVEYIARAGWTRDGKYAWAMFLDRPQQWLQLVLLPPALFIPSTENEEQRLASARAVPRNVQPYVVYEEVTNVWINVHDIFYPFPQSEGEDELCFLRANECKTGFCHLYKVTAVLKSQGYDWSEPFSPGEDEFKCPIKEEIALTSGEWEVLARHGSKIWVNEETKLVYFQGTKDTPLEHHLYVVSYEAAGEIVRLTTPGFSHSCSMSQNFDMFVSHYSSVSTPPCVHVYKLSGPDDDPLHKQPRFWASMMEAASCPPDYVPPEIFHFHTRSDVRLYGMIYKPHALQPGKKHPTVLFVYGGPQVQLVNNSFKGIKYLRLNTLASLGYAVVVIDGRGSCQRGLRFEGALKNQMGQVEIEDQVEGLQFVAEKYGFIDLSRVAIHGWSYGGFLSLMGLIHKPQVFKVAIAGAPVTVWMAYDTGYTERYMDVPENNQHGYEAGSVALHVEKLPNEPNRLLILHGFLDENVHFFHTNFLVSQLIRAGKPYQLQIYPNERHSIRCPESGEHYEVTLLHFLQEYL

Structure (SMILES) | IC50 (Dipeptidyl peptidase 9) | clearance [1] | half-life [2] | bioavailability [3] | IC50 (Dipeptidyl peptidase 2) | IC50 (Dipeptidyl peptidase 8) | IC50 (Dipeptidyl peptidase 4) | other results
N[C@@H](CC(=O)N1CCn2nc(C(F)(F)F)nc2C1)Cc1cc(F)c(F)cc1F | > 100 µM | 60 mL/min/kg | 3.6 h | 100% |  |  |  | 
N[C@@H](CC(=O)N1CCn2nc(C(F)(F)F)nc2[C@H]1Cc1ccc(F)cc1)Cc1cc(F)c(F)cc1F |  | 76 mL/min/kg | 2.7 h | 32% |  |  |  | 
N[C@@H](CC(=O)N1CCn2nc(C(F)(F)F)nc2[C@@H]1C(F)C1CC1)Cc1cc(F)c(F)cc1F (stereo in doubt; 34c) |  |  |  |  | 5.77 µM | > 100 µM | 0.018 µM | 
N[C@@H](CC(=O)N1CCn2nc(C(F)(F)F)nc2[C@@H]1C(O)C1CC1)Cc1cc(F)c(F)cc1F (some centres not stated) [listing 1 of 2 here] | > 100 µM | 97 mL/min/kg | 3.9 h | 63% |  |  |  | 
N[C@@H](CC(=O)N1CCn2nc(C(F)(F)F)nc2C1Cn1ccnc1)Cc1cc(F)c(F)cc1F (some centres not stated) |  | 97 mL/min/kg | 9 h | 7.1% | 26 µM | > 100 µM |  | 
N[C@@H](CC(=O)N1CCn2nc(C(F)(F)F)nc2[C@H]1Cn1cncn1)Cc1cc(F)c(F)cc1F | > 100 µM |  |  |  | 22 µM | > 100 µM | 0.002 µM | 
N[C@@H](CC(=O)N1CCn2ncnc2C1)Cc1cc(F)c(F)cc1F | > 100 µM |  |  |  | > 100 µM | > 100 µM | 0.1 µM | 

The next lines start with results.

IC50 (Dipeptidyl peptidase 9) | clearance [1] | half-life [2] | bioavailability [3] | IC50 (Dipeptidyl peptidase 2) | IC50 (Dipeptidyl peptidase 8) | IC50 (Dipeptidyl peptidase 4) | Structure (SMILES) | other results
 |  |  |  | 4.1 µM | > 100 µM | 0.011 µM | N[C@@H](CC(=O)N1CCn2nc(C(F)(F)F)nc2[C@@H]1C(F)C1CC1)Cc1cc(F)c(F)cc1F (stereo in doubt; 34d) | 
> 100 µM |  |  |  | > 100 µM | > 100 µM |  | N[C@@H](CC(=O)N1CCn2nc(C3CC3)nc2C1)Cc1cc(F)c(F)cc1F | 
 | 60 mL/min/kg |  |  |  |  |  | N[C@@H](CC(=O)N1CCn2c(nnc2C(F)(F)F)C1)Cc1cc(F)c(F)cc1F [SITAGLIPTIN] | clearance [4]: 6 mL/min/kg; clearance [5]: 28 mL/min/kg; t1/2 (Rattus norvegicus): 1.7 h; half-life [6]: 4.9 h; half-life [7]: 3.7 h; bioavailability [8]: 100%; bioavailability [9]: 68%
> 100 µM |  |  |  |  |  |  | N[C@@H](CC(=O)N1CCn2nc(-c3ccccc3)nc2C1)Cc1cc(F)c(F)cc1F | 
> 100 µM | 142 mL/min/kg | 2.3 h | 62% | 9.6 µM | > 100 µM |  | N[C@@H](CC(=O)N1CCn2nc(C(F)(F)F)nc2C1Cn1cccn1)Cc1cc(F)c(F)cc1F (some centres not stated) | 
> 100 µM | 91 mL/min/kg | 5.1 h | 51% |  |  |  | N[C@@H](CC(=O)N1CCn2nc(C(F)(F)F)nc2[C@@H]1C(O)C1CC1)Cc1cc(F)c(F)cc1F (some centres not stated) [listing 2 of 2 here] | 
> 100 µM |  |  |  | 72 µM | > 100 µM |  | C[C@H]1c2nc(C(F)(F)F)nn2CCN1C(=O)C[C@H](N)Cc1cc(F)c(F)cc1F | 
> 100 µM | 68 mL/min/kg | 4 h | 74% | 25 µM | > 100 µM |  | C[C@@H]1c2nc(C(F)(F)F)nn2CCN1C(=O)C[C@H](N)Cc1cc(F)c(F)cc1F | clearance [4]: 1 mL/min/kg; clearance [5]: 16 mL/min/kg; half-life [6]: 26 h; half-life [7]: 7.7 h; bioavailability [8]: 67%; bioavailability [9]: 65%; Activity (Mus musculus [10]): 14%; Activity (Mus musculus [11]): 44%; Activity (Mus musculus [12]): 39%
> 100 µM | 129 mL/min/kg | 2.8 h | 13% | 49 µM | > 100 µM | 0.005 µM | N[C@@H](CC(=O)N1CCn2nc(C(F)(F)F)nc2C1Cn1cncn1)Cc1cc(F)c(F)cc1F (some centres not stated) | 
